Measurements as given in the CheMixHub ionic liquid set.

Assay: xn = mol fraction of the nth substance listed
Conditions: 101 kPa

CCCCCCCCCCCC[N+](C)(C)Cc1ccccc1.[Cl-] + CC(C)[C@H](NC(=O)CN)C(=O)O + O
electrical conductivity [S/m]
Conditions | 293.15 K | 298.15 K | 303.15 K | 308.15 K | 313.15 K
x2 = 0.0008945, x1 = 0.0002772 | 0.0811 | 0.0911 | 0.102 | 0.114 | 0.127
x2 = 0.0008945, x1 = 0.0002957 | 0.0841 | 0.0945 | 0.106 | 0.118 | 0.132
x2 = 0.0008945, x1 = 0.0003197 | 0.0879 | 0.099 | 0.112 | 0.124 | 0.138
x2 = 0.0008946, x1 = 0.0001647 | 0.0603 | 0.0672 | 0.0747 | 0.0825 | 0.0908
x2 = 0.0008946, x1 = 0.0001903 | 0.066 | 0.0736 | 0.0819 | 0.0907 | 0.1
x2 = 0.0008946, x1 = 0.0002151 | 0.0707 | 0.0791 | 0.0882 | 0.0978 | 0.108
x2 = 0.0008946, x1 = 0.0002373 | 0.0746 | 0.0834 | 0.0932 | 0.103 | 0.115
x2 = 0.0008946, x1 = 0.0002578 | 0.0779 | 0.0874 | 0.0977 | 0.109 | 0.121
x2 = 0.0008947, x1 = 7.118e-05 | 0.0298 | 0.0334 | 0.0372 | 0.041 | 0.0451
x2 = 0.0008947, x1 = 9.37e-05 | 0.0378 | 0.0423 | 0.0471 | 0.052 | 0.0571
x2 = 0.0008947, x1 = 0.0001168 | 0.0458 | 0.0513 | 0.0569 | 0.0627 | 0.0689
x2 = 0.0008947, x1 = 0.00014 | 0.0533 | 0.0596 | 0.0662 | 0.0729 | 0.0801
x2 = 0.0008948, x1 = 4.976e-05 | 0.022 | 0.0246 | 0.0275 | 0.0304 | 0.0335
x2 = 0.001798, x1 = 0.0001623 | 0.0582 | 0.0649 | 0.0722 | 0.0797 | 0.0879
x2 = 0.001798, x1 = 0.0001897 | 0.0643 | 0.0719 | 0.08 | 0.0885 | 0.098
x2 = 0.001798, x1 = 0.0002152 | 0.0693 | 0.0776 | 0.0866 | 0.096 | 0.106
x2 = 0.001798, x1 = 0.0002386 | 0.0736 | 0.0825 | 0.0922 | 0.102 | 0.114
x2 = 0.001798, x1 = 0.0002594 | 0.0773 | 0.0868 | 0.097 | 0.108 | 0.12
x2 = 0.001798, x1 = 0.0002777 | 0.0804 | 0.0903 | 0.101 | 0.113 | 0.126
x2 = 0.001798, x1 = 0.0002962 | 0.0834 | 0.0939 | 0.105 | 0.118 | 0.131
x2 = 0.001798, x1 = 0.0003218 | 0.0878 | 0.099 | 0.112 | 0.124 | 0.139
x2 = 0.001799, x1 = 4.099e-05 | 0.0199 | 0.0223 | 0.0251 | 0.0278 | 0.0307
x2 = 0.001799, x1 = 6.551e-05 | 0.0284 | 0.0319 | 0.0356 | 0.0393 | 0.0433
x2 = 0.001799, x1 = 8.875e-05 | 0.0363 | 0.0406 | 0.0453 | 0.0499 | 0.0549
x2 = 0.001799, x1 = 0.0001114 | 0.0437 | 0.0488 | 0.0543 | 0.0598 | 0.066
x2 = 0.001799, x1 = 0.000136 | 0.0512 | 0.0571 | 0.0635 | 0.0695 | 0.0771
